How the values were obtained:
Type in all cases: cell-based
[1] = Antimicrobial and antifungal characteristics (MIC) of propylene carbonate alone
Description: In one embodiment of the application, the synergistic composition of propylene carbonate with one or more organic compounds or preservative compounds can provide broad spectrum antimicrobial properties. […] The presence of propylene carbonate in the composition can maximize the partitioning of the mixture of organic/preservative compounds into the water phase when added to an end-user composition comprising a mixture of oil and a water phase. Further, the propylene carbonate-based compositions or blends acts as a delivery agent for other preservative/organic actives that have low polarity with high dielectric constant making it a suitable blend to dissolve hydrophobic non-polar actives. The high dielectric constant of the composition enables it to partition the active ingredients towards the oil/water interface which is critical for maximum efficacy and reduces use levels of preservatives or boosters.

C. albicans = test: Synergy study of PC and (CHA + IPMP), MIC by broth dilution; conditions: compound acting alone
Method: (§1) The synergistic activity of PC and (CHA+IPMP) compounds were performed against selected microbial strains.
(§2) Tryptic Soy Broth (TSB) media was used for bacterial evaluations and Yeast Malt Broth (YMB) for fungal evaluations. The IPMP solution is prepared by combining 0.25% IPMP with 20% DMSO and water (q.s. 100%). The CHA solution was prepared by combining 0.5% CHA with 20% DMSO and water (q.s. 100%). The compounds are then added to the media (50 μL) and serially diluted. The same amount of PC was added to all wells (e.g. 50 μL of 6.25% solution). 100 μl of a suspension of the testing bacteria or fungi are added to a final concentration of approximately 10^6 CFU/ml in double concentrated media. The inoculated media is then incubated at 32° C. for 2-5 days for bacteria or at 28° C. for 3-7 days for fungi.
(§3) The lowest concentration of each compound or mixture of compounds to inhibit visible growth is taken as the minimum inhibitory concentration (MIC). The MIC is taken as end points of activity. End points for the mixture of compound A (CHA) and compound B (IPMP) with and without PC are then compared with the end points for the pure active ingredient alone.
(§4) Synergism was determined by a commonly used and accepted method described by Kull A. C; Eisman, P. C.; Sylwestrowicz, H. D. and Mayer, R. L. 1961. Applied Microbiology, 9:538-541 using the ratio determine by: Qa/QA+Qb/QB=Synergy Wherein: • QA is the concentration of compound A in PPM, acting alone, which produced an end point. • Qa is the concentration of compound A in PPM, in the mixture, which produced an end point. • QB is the concentration of compound B in PPM, acting alone, which produced an end point. • Qb is the concentration of compound B in PPM, in the mixture, which produced an end point When the sum of Qa/QA+Qb/QB is greater than one, antagonism is indicated. When the sum is equal to one, additive is indicated.
(§5) The results comprise following parameters: 1. Test organism (bacteria or fungi), 2. The end-point activity in % measured by MIC for the compound A alone (QA), for compound A in the mixture (Qa), for compound B alone (QB), for compound B in the mixture (Qb), 3. The ratio of CHA and IPMP (compound A and B) in that particular combination, 4. The sum of Qa+Qb (total ppm that inhibited growth) and 5. and the synergy index (SI) based on the formula SI=Qa/QA+Qb/QB

A. niger = test: as above; conditions: compound acting alone
Method: as §1, §2, §3, §4, §5

E. coli = test: as above; conditions: compound acting alone
Method: as §1, §2, §3, §4, §5

B. cepacia = test: as above; conditions: compound acting alone
Method: as §1, §2, §3, §4, §5

## CC1COC(=O)O1 (stereo not drawn) [Propylene carbonate]
[1]
  Antimicrobial and antifungal characteristics (MIC): no significant antimicrobial and antifungal characteristics

## CCCCCCCC(=O)NO [CHA, caprylhydroxamic acid]
C. albicans; Candida albicans, read-out: MIC, CHA alone (QA)
  MIC: 312 µg/mL
A. niger; Aspergillus niger, read-out: MIC, CHA alone (QA)
  MIC: 312 µg/mL
E. coli; Escherichia coli, read-out: MIC, CHA alone (QA)
  MIC: 625 µg/mL
B. cepacia; Burkholderia cepacia, read-out: MIC, CHA alone (QA)
  MIC: 312 µg/mL

## Cc1cc(O)ccc1C(C)C [IPMP, isopropyl methylphenol]
C. albicans
  MIC, IPMP alone (QB): 312.5 ppm
A. niger
  MIC, IPMP alone (QB): 156.3 ppm
E. coli
  MIC, IPMP alone (QB): 625 ppm
B. cepacia
  MIC, IPMP alone (QB): 312.5 ppm
